In paper PMC4999056 (European Journal of Medicinal Chemistry, 2016):
pEC50: −log10 of the molar value. Like-named read-outs stand apart in the source and are kept apart here.

What was measured:
DENV (serotype 2) = experiment: microbe, parasite or virus in culture; assay type: cell-based, Dengue virus serotype 2; conditions: for pEC50: read-out: Dengue EC50
YFV = experiment: microbe, parasite or virus in culture; assay type: cell-based, yellow fever virus; conditions: for pEC50: read-out: Yellow fever EC50
in vitro [1] = conditions: chlorocebus aethiops
in vitro [2] = conditions: chlorocebus aethiops; remark: listed apart in the source
[3] = system: Vero-B cells (ATCCCCL-81)

Row | Compound | pEC50 (DENV (serotype 2); Dengue virus, Vero B) | pEC50 (YFV; Yellow fever virus, Vero B) | CC50 (in vitro [1]) | CC50 (in vitro [2]; Yellow fever CC50) | Dengue SI (DENV (serotype 2)) | Yellow fever SI (YFV) | CC50 (in vitro [2]; Yellow fever CC50 (visual)) | pEC50 (DENV (serotype 2)) | pEC50 (YFV) | CC50 (Vero-B cells (ECACC)) | CC50 [3]
1 | Cc1ccc(NC(=O)c2ccccc2NC(=O)c2ccc(F)cc2)c(-c2ccsc2)c1 [13a, 2-(4-fluorobenzamido)-N-(4-methyl-2-(thiophen-3-yl)phenyl)benzamide] | < 3.94 | < 3.94 | > 116 µM | > 116 µM |  |  |  |  |  |  | 
2 | Cc1ccc(NC(=O)c2ccccc2NC(=O)c2ccc(F)cc2)c(-c2ccc(C)s2)c1 [13b, 2-(4-fluorobenzamido)-N-(4-methyl-2-(5-methylthiophen-2-yl)phenyl)benzamide] | 5.49 | < 3.95 | > 113 µM | > 113 µM | >35 | 1 | 12.5 µM |  |  |  | 
3 | Cc1ccc(NC(=O)c2ccccc2NC(=O)c2ccc(F)cc2)c(-c2ccncc2)c1 [13c, 2-(4-fluorobenzamido)-N-(4-methyl-2-(pyridin-4-yl)phenyl)benzamide] | 4.77 | < 3.93 | > 117 µM | > 50 µM | >7 | 1 | 30 µM |  |  |  | 
4 | Cc1ccc(NC(=O)c2ccccc2NC(=O)c2ccc(F)cc2)c(-c2cccnc2)c1 [13d, 2-(4-fluorobenzamido)-N-(4-methyl-2-(pyridin-3-yl)phenyl)benzamide] | 4.64 | < 3.93 | > 117 µM | > 50 µM | >5 | 1 | 39 µM |  |  |  | 
5 | N^1-(4-fluorophenyl)-N^2-(2-(thiophen-3-yl)benzyl)phthalamide [7i] |  |  |  |  | 17 | 53 |  | 5.52 | 5.85 | 50 µM | 75 µM
